According to ChEMBL document CHEMBL1201862, “PubChem BioAssay data set” (2004):
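Five concentrations, 48 hours, 96-well plates. GI50 is the concentration that inhibits growth by half.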 Active and inactive are the calls of the source. Rule as the data show it: active = GI50 up to about 1.1 µM and inactive = higher.

Legend:
Assay in all cases: DTP human tumour cell line panel, 48 h
786-0 = test system: 786-0
ACHN = test system: ACHN
CAKI-1 = test system: CAKI-1
CCRF-CEM = test system: CCRF-CEM
DU-145 = test system: DU-145
HL-60 = test system: HL-60
Hs-578T = test system: Hs-578T
IGROV-1 = test system: IGROV-1
LOX IMVI = test system: LOX IMVI
M14 = test system: M14
NCI-H460 = test system: NCI-H460
NCI-H522 = test system: NCI-H522
OVCAR-4 = test system: OVCAR-4
OVCAR-5 = test system: OVCAR-5
OVCAR-8 = test system: OVCAR-8
RPMI-8226 = test system: RPMI-8226
SF-295 = test system: SF-295
TK-10 = test system: TK-10
UACC-257 = test system: UACC-257

| Compound | GI50 (786-0) | GI50 (ACHN) | GI50 (CAKI-1) | GI50 (CCRF-CEM) | GI50 (DU-145) | GI50 (HL-60) | GI50 (Hs-578T) | GI50 (IGROV-1) | GI50 (LOX IMVI) | GI50 (M14) | GI50 (NCI-H460) | GI50 (NCI-H522) | GI50 (OVCAR-4) | GI50 (OVCAR-5) | GI50 (OVCAR-8) | GI50 (RPMI-8226) | GI50 (SF-295) | GI50 (TK-10) | GI50 (UACC-257) |
| --- | --- | --- | --- | --- | --- | --- | --- | --- | --- | --- | --- | --- | --- | --- | --- | --- | --- | --- | --- |
| O=C(O)CNC(=O)c1ccc([As](=O)(O)O)cc1 | > 100 µM (inactive) | > 100 µM (inactive) | > 100 µM (inactive) | > 100 µM (inactive) | > 100 µM (inactive) | > 100 µM (inactive) | > 100 µM (inactive) | > 100 µM (inactive) | > 100 µM (inactive) | > 100 µM (inactive) | > 100 µM (inactive) | > 100 µM (inactive) | > 100 µM (inactive) | > 100 µM (inactive) | > 100 µM (inactive) | > 100 µM (inactive) | > 100 µM (inactive) | > 100 µM (inactive) |  |
| O=P1(c2ccccc2)C(c2ccccc2)CCC1c1ccccc1 (stereo not given) | > 100 µM (inactive) |  | 16.4 µM (inactive) | 21.4 µM (inactive) | > 100 µM (inactive) | 10.2 µM (inactive) | > 100 µM (inactive) | 82.6 µM (inactive) | 41.1 µM (inactive) | 68.5 µM (inactive) |  | 26.4 µM (inactive) |  |  | 91.4 µM (inactive) | 22.1 µM (inactive) | 32.1 µM (inactive) | 71 µM (inactive) | 71.1 µM (inactive) |
| Cc1ccc(C(=O)/C=C2\Nc3ccccc3NC2=O)cc1 | 2.49 µM (inactive) | 3.4 µM (inactive) | 2.44 µM (inactive) | 99.1 µM (inactive) | 4.69 µM (inactive) | > 100 µM (inactive) | 2.21 µM (inactive) | 1.07 µM (active) | 7.94 µM (inactive) | 9.27 µM (inactive) | 6.43 µM (inactive) | 2.49 µM (inactive) | 1.79 µM (inactive) | 29.4 µM (inactive) | 3.08 µM (inactive) | 11.1 µM (inactive) | 4.17 µM (inactive) | 2.1 µM (inactive) | 12.4 µM (inactive) |
| CCCCCCCCCCCCCC(=O)OCC(CCS(=O)(=O)O[C@H]1CC[C@@]2(C)C(=CC[C@@H]3C2CC[C@]2(C)C(=O)CCC32)C1)OC(=O)CCCCCCCCCCCCC (stereo not given in full) | > 100 µM (inactive) | > 100 µM (inactive) | > 100 µM (inactive) | > 100 µM (inactive) | > 100 µM (inactive) | > 100 µM (inactive) | > 100 µM (inactive) | > 100 µM (inactive) | > 100 µM (inactive) | > 100 µM (inactive) | > 100 µM (inactive) |  | > 100 µM (inactive) | > 100 µM (inactive) |  | > 100 µM (inactive) | > 100 µM (inactive) | > 100 µM (inactive) | > 100 µM (inactive) |
| O=C(C1OC1c1ccc(Br)cc1O)C12CC3CC(CC(C3)C1)C2 (stereo not given) | 17.6 µM (inactive) | 33.9 µM (inactive) |  | 23.5 µM (inactive) | 42 µM (inactive) | 16.9 µM (inactive) | 15.7 µM (inactive) | 32 µM (inactive) | 14.6 µM (inactive) | 18.1 µM (inactive) | 27.6 µM (inactive) | 18.8 µM (inactive) | 26.2 µM (inactive) | 41.5 µM (inactive) | 20.5 µM (inactive) | 17.8 µM (inactive) | 17.9 µM (inactive) | 33.9 µM (inactive) | 29 µM (inactive) |
| Cn1c(N)nc(-c2ccc(Cl)cc2)c1SSc1c(-c2ccc(Cl)cc2)nc(N)n1C | 1.92 µM (inactive) | 2.38 µM (inactive) |  | 2.44 µM (inactive) | 12.8 µM (inactive) | 1.05 µM (active) | 27.1 µM (inactive) | 2.99 µM (inactive) |  | 2.12 µM (inactive) | 3.45 µM (inactive) | 1.66 µM (inactive) | 1.75 µM (inactive) | 1.86 µM (inactive) | 2.86 µM (inactive) | 1.31 µM (inactive) | 6.93 µM (inactive) | 1.86 µM (inactive) | 2.04 µM (inactive) |
| COC(=O)NC(Nc1ccc(C)cc1)(C(F)(F)F)C(F)(F)F | > 100 µM (inactive) | > 100 µM (inactive) | > 100 µM (inactive) | > 100 µM (inactive) | > 100 µM (inactive) | > 100 µM (inactive) | > 100 µM (inactive) | > 100 µM (inactive) | > 100 µM (inactive) | > 100 µM (inactive) | > 100 µM (inactive) | > 100 µM (inactive) |  | > 100 µM (inactive) | > 100 µM (inactive) | > 100 µM (inactive) | > 100 µM (inactive) | > 100 µM (inactive) | > 100 µM (inactive) |
| Cn1c(=O)n2n(c1=O)C1C(=CC2)C2C=CC1n1c(=O)n(C)c(=O)n12 (stereo not given) | > 100 µM (inactive) | > 100 µM (inactive) | > 100 µM (inactive) | > 100 µM (inactive) | > 100 µM (inactive) | > 100 µM (inactive) | > 100 µM (inactive) | > 100 µM (inactive) | > 100 µM (inactive) | > 100 µM (inactive) | > 100 µM (inactive) | > 100 µM (inactive) |  | > 100 µM (inactive) | > 100 µM (inactive) | > 100 µM (inactive) | > 100 µM (inactive) | > 100 µM (inactive) | > 100 µM (inactive) |
